# Test results as given in US6737383B1, “Herbicidal oxadiazolidines” (priority 1999, dated 2004).
# How the values were obtained:
# bedstraw = experiment: Test B pre/postemergence bedstraw; assay type: in vivo, Galium aparine
# Procedure, shortened: (§1)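 Herbicidal effect was estimated by eye on a ten-point control scale after plants spent twelve to sixteen days in a greenhouse following soil or foliar treatment. Foliar sprays targeted plants at one to four leaves; all doses were formulated in a non-phytotoxic solvent with surfactant.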
# blackgrass = experiment: Test B pre/postemergence blackgrass; assay type: in vivo, Alopecurus myosuroides
# Procedure, shortened: as §1
# surinam grass = experiment: Test B pre/postemergence surinam grass; assay type: in vivo, Brachiaria decumbens
# Procedure, shortened: as §1
# cocklebur = experiment: Test B pre/postemergence cocklebur; assay type: in vivo, Xanthium strumarium
# Procedure, shortened: as §1
# corn = experiment: Test B pre/postemergence corn; assay type: in vivo, Zea mays
# Procedure, shortened: as §1
# morningglory = experiment: Test B pre/postemergence morningglory; assay type: in vivo, Ipomoea hederacea
# Procedure, shortened: as §1
# pigweed = experiment: Test B pre/postemergence pigweed; assay type: in vivo, Amaranthus retroflexus
# Procedure, shortened: as §1
# rape = experiment: Test B pre/postemergence rape; assay type: in vivo, Brassica napus
# Procedure, shortened: as §1
# soybean = experiment: Test B pre/postemergence soybean; assay type: in vivo, Glycine max
# Procedure, shortened: as §1
# sugar beet = experiment: Test B pre/postemergence sugar beet; assay type: in vivo, Beta vulgaris
# Procedure, shortened: as §1
# velvetleaf = experiment: Test B pre/postemergence velvetleaf; assay type: in vivo, Abutilon theophrasti
# Procedure, shortened: as §1
# wild oat = experiment: Test B pre/postemergence wild oat; assay type: in vivo, Avena fatua
# Procedure, shortened: as §1
# purple nutsedge = experiment: Test B pre/postemergence purple nutsedge; assay type: in vivo, Cyperus rotundus
# Procedure, shortened: as §1
# rice = experiment: Test B flood test rice; assay type: in vivo, Oryza sativa
# Procedure, shortened: (§2)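 Plants were grown to the 2-leaf stage before treatment with test chemical, then held in a greenhouse for twelve to sixteen days. Injury was visually rated against untreated controls on a 0–10 scale, where 0 is no effect and 10 is complete control.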
# smallflower flatsedge = experiment: Test B flood test smallflower flatsedge; assay type: in vivo, Cyperus difformis
# Procedure, shortened: as §2
# bamyardgrass = experiment: Test B flood test barnyardgrass; assay type: in vivo, Echinochloa crus-galli
# Procedure, shortened: as §2
# [1] = Preemergence, Rate 31 g/ha, visual rating, scale 0 to 10 (0 no effect, 10 complete control)
# [2] = Preemergence, Rate 62 g/ha, scale of 0 to 10 where 0 is no effect and 10 is complete control
# [3] = Rate 16 g/ha, Postemergence, scale 0 to 10, 0 no effect, 10 complete control
# [4] = Rate 16 g/ha, Preemergence, scale 0 to 10, 0 no effect, 10 complete control
# [5] = Rate 31 g/ha, Postemergence, scale 0 to 10
# [6] = Rate 62 g/ha, Postemergence, scale 0 to 10 (0 no effect, 10 complete control)
# [7] = Rate 125 g/ha, Postemergence, scale of 0 to 10 where 0 is no effect and 10 is complete control
# [8] = Rate 125 g/ha, Preemergence, scale of 0 to 10 where 0 is no effect and 10 is complete control
# [9] = Rate 16 g/ha, head printed Pre-emergence (flood test species), scale 0 to 10, 0 no effect, 10 complete control
# [10] = Rate 31 g/ha, Pre-emergence section (flood test species), scale 0 to 10
# [11] = Rate 62 g/ha, headed Pre-emergence (flood test species), scale 0 to 10 (0 no effect, 10 complete control)
# [12] = Rate 125 g/ha, Pre-emergence, flood test species, scale 0 to 10 where 0 is no effect and 10 is complete control
smiles,measurement,setting,value
CC(C)N(C(=O)n1oc(=O)n(CCCF)c1=O)c1ccc(F)cc1 [Compound 287],Bedstraw plant response rating,bedstraw; [1],4
same,Bedstraw plant response rating,bedstraw; [2],9
same,Bedstraw plant response rating,bedstraw; [3],0
same,Bedstraw plant response rating,bedstraw; [4],0
same,Bedstraw plant response rating,bedstraw; [5],0
same,Bedstraw plant response rating,bedstraw; [6],4
same,Bedstraw plant response rating,bedstraw; [7],8
same,Bedstraw plant response rating,bedstraw; [8],10
same,Blackgrass plant response rating,blackgrass; [1],7
same,Blackgrass plant response rating,blackgrass; [2],10
same,Blackgrass plant response rating,blackgrass; [3],0
same,Blackgrass plant response rating,blackgrass; [4],0
same,Blackgrass plant response rating,blackgrass; [5],8
same,Blackgrass plant response rating,blackgrass; [6],8
same,Blackgrass plant response rating,blackgrass; [7],9
same,Blackgrass plant response rating,blackgrass; [8],10
same,B. signalgrass plant response rating,surinam grass; [1],3
same,B. signalgrass plant response rating,surinam grass; [2],6
same,B. signalgrass plant response rating,surinam grass; [3],0
same,B. signalgrass plant response rating,surinam grass; [4],0
same,B. signalgrass plant response rating,surinam grass; [5],0
same,B. signalgrass plant response rating,surinam grass; [6],0
same,B. signalgrass plant response rating,surinam grass; [7],2
same,B. signalgrass plant response rating,surinam grass; [8],10
same,Cocklebur plant response rating,cocklebur; [1],0
same,Cocklebur plant response rating,cocklebur; [2],0
same,Cocklebur plant response rating,cocklebur; [3],0
same,Cocklebur plant response rating,cocklebur; [4],0
same,Cocklebur plant response rating,cocklebur; [5],0
same,Cocklebur plant response rating,cocklebur; [6],0
same,Cocklebur plant response rating,cocklebur; [7],1
same,Cocklebur plant response rating,cocklebur; [8],0
same,Corn plant response rating,corn; [1],0
same,Corn plant response rating,corn; [2],0
same,Corn plant response rating,corn; [3],0
same,Corn plant response rating,corn; [4],0
same,Corn plant response rating,corn; [5],0
same,Corn plant response rating,corn; [6],0
same,Corn plant response rating,corn; [7],0
same,Corn plant response rating,corn; [8],0
same,Morningglory plant response rating,morningglory; [1],0
same,Morningglory plant response rating,morningglory; [2],0
same,Morningglory plant response rating,morningglory; [3],2
same,Morningglory plant response rating,morningglory; [4],0
same,Morningglory plant response rating,morningglory; [5],2
same,Morningglory plant response rating,morningglory; [6],2
same,Morningglory plant response rating,morningglory; [7],2
same,Morningglory plant response rating,morningglory; [8],0
same,Redroot pigweed plant response rating,pigweed; [1],4
same,Redroot pigweed plant response rating,pigweed; [2],5
same,Redroot pigweed plant response rating,pigweed; [3],0
same,Redroot pigweed plant response rating,pigweed; [4],0
same,Redroot pigweed plant response rating,pigweed; [5],0
same,Redroot pigweed plant response rating,pigweed; [6],2
same,Redroot pigweed plant response rating,pigweed; [7],6
same,Redroot pigweed plant response rating,pigweed; [8],8
same,Rape plant response rating,rape; [1],4
same,Rape plant response rating,rape; [2],4
same,Rape plant response rating,rape; [3],0
same,Rape plant response rating,rape; [4],0
same,Rape plant response rating,rape; [5],0
same,Rape plant response rating,rape; [6],0
same,Rape plant response rating,rape; [7],0
same,Rape plant response rating,rape; [8],8
same,Soybean plant response rating,soybean; [1],0
same,Soybean plant response rating,soybean; [2],0
same,Soybean plant response rating,soybean; [3],1
same,Soybean plant response rating,soybean; [4],0
same,Soybean plant response rating,soybean; [6],1
same,Soybean plant response rating,soybean; [7],3
same,Soybean plant response rating,soybean; [8],6
same,Sugarbeets plant response rating,sugar beet; [1],0
same,Sugarbeets plant response rating,sugar beet; [2],3
same,Sugarbeets plant response rating,sugar beet; [3],0
same,Sugarbeets plant response rating,sugar beet; [4],0
same,Sugarbeets plant response rating,sugar beet; [6],0
same,Sugarbeets plant response rating,sugar beet; [7],0
same,Sugarbeets plant response rating,sugar beet; [8],6
same,Velvetleaf plant response rating,velvetleaf; [1],3
same,Velvetleaf plant response rating,velvetleaf; [2],6
same,Velvetleaf plant response rating,velvetleaf; [3],0
same,Velvetleaf plant response rating,velvetleaf; [4],1
same,Velvetleaf plant response rating,velvetleaf; [6],0
same,Velvetleaf plant response rating,velvetleaf; [7],4
same,Velvetleaf plant response rating,velvetleaf; [8],7
same,Wild oats plant response rating,wild oat; [1],1
same,Wild oats plant response rating,wild oat; [2],8
same,Wild oats plant response rating,wild oat; [3],0
same,Wild oats plant response rating,wild oat; [4],0
same,Wild oats plant response rating,wild oat; [6],2
same,Wild oats plant response rating,wild oat; [7],3
same,Nutsedge plant response rating,purple nutsedge; [1],0
same,Nutsedge plant response rating,purple nutsedge; [2],0
same,Nutsedge plant response rating,purple nutsedge; [3],0
same,Nutsedge plant response rating,purple nutsedge; [4],0
same,Nutsedge plant response rating,purple nutsedge; [5],5
same,Nutsedge plant response rating,purple nutsedge; [6],6
same,Nutsedge plant response rating,purple nutsedge; [7],6
same,Nutsedge plant response rating,purple nutsedge; [8],6
same,Rice plant response rating,rice; [9],0
same,Rice plant response rating,rice; [10],0
same,Rice plant response rating,rice; [11],0
same,Rice plant response rating,rice; [12],0
same,S. Flatsedge plant response rating,smallflower flatsedge; [9],0
same,S. Flatsedge plant response rating,smallflower flatsedge; [10],0
same,S. Flatsedge plant response rating,smallflower flatsedge; [11],0
same,S. Flatsedge plant response rating,smallflower flatsedge; [12],0
same,Barnyardgrass plant response rating,bamyardgrass; [9],0
same,Barnyardgrass plant response rating,bamyardgrass; [10],0
same,Barnyardgrass plant response rating,bamyardgrass; [11],0
same,Barnyardgrass plant response rating,bamyardgrass; [12],0
